Data from patent publication US12318393B2, “Modulators of orphan nuclear receptors for NASH and other metabolic disorders” (Emory University, priority 2018, dated 2025).

Columns and labels:
[1] = Cellular toxicity assay in human PBM cells; assay type: cell-based; settings: read-out: Cytotoxicity (IC50, μM) PBM
Description: (§1) The toxicity of the compounds was assessed in human PBM, CEM (human lymphoblastoid), and Huh-7 cells, as described previously (see Schinazi R. F., Sommadossi J.-P., Saalmann V., Cannon D. L., Xie M.-Y., Hart G. C., Smith G. A. & Hahn E. F. Antimicrob. Agents Chemother. 1990, 34, 1061-67). Cycloheximide was included as positive cytotoxic control, and untreated cells exposed to solvent were included as negative controls. The cytotoxicity IC50 was obtained from the concentration-response curve using the median effective method described previously (see Chou T.-C. & Talalay P. Adv. Enzyme Regul. 1984, 22, 27-55; Belen'kii M. S. & Schinazi R. F. Antiviral Res. 1994, 25, 1-11).

[2] = test system: C57BL/6 mice fed with atherogenic diet; test: Atherogenic (fibrotic) diet mouse model: liver damage, inflammation, fibrosis; assay type: in vivo
Description: Male C57BL/6J mice, 7 to 8 weeks old, were housed randomly in standard cages and were fed a HFD, or atherogenic diet (consisting 1% Chol and 0.5% cholic acid, see also Table 3). All mice had free access to water during the experimental period. During the feeding period body weight was monitored every 3 days. In the HFD experiment, after 4 or 6 weeks, the resultant obese mice were treated with antagomiR-122 ([…] once a week for 3 weeks), or i.p. injected with Compound 1 (RORα agonist, 7.5 mg/kg twice a week for 3 weeks; or 15 mg/kg 3 times a week for 3 weeks). The obese control (HFD) group was administered only saline with DMSO and antagomiR-control. After 3 weeks of treatment mice were sacrificed and livers were taken for RNA-seq analysis. Livers, white adipose, and skeletal muscle tissues were frozen in liquid nitrogen or in optimum cutting temperature embedded frozen blocks, for further RNA and histologic analysis. In the atherogenic diet experiment mice were treated with 15 mg/kg Compound 1 after 3 weeks with the diet. After 3.5 weeks of treatment, mice were sacrificed, and the livers were frozen in liquid nitrogen or in optimum cutting temperature embedded frozen blocks. Plasma was collected from atherogenic diet-fed mice and saved in −20° C. for ALT and AST analysis using the Reflotron® Analyzer and test-strips (Roche).
Livers and adipose samples were placed in 4% buffered formaldehyde for 24 hours, followed by 80% ethanol and then embedded in paraffin blocks. Liver and adipose tissues were cut into […], deparaffinized with xylene and hydrated through graded ethanol. For the H&E staining, tissue sections were stained with hematoxylin (Emmonya Biotech Ltd.) and eosin (Leica, Surgipath). Liver macrophages were stained using rat anti-mouse F4/80 antigen (Serotec), followed by anti-Rat HRP (Histofine) and developed with a DAB kit (Zymed). Liver sections were stained for Masson Trichrome (Sigma). Liver CD3+ T cells were stained using Rat anti human-CD3-antibody (Bio-Rad), followed by anti-Rat HRP (Histofine) and developed with AEC (Invitrogen). α-SMA positive cells were stained using mouse anti-Human smooth Muscle Actin antibody (Dako), followed by anti-mouse HRP (Dako) and developed with DAB. The percentage area stained positively per high power field was calculated by ImageJ Software in 5-10 random fields.
Experimental design: C57BL/6 mice fed for 3 weeks with atherogenic diet (to induce fibrosis) and injected with 15 mg/kg Compound 1 (or saline+DMSO) 3 times a week for 3.5 week (n=8).
Experimental design: C57BL/6 mice fed for 3 weeks with atherogenic diet (to induce fibrosis) and injected with 15 mg/kg Compound 1 (or saline+DMSO) 3 times a week for 3.5 week (n=8). Representative microphotographs of H&E, CD3, and F4/80-stained livers taken from saline or Compound 1-treated mice are shown in FIG. 12A, where scale bars represent 10 μm. The graphs shown in FIG. 12B show quantification of positively-stained F4/80 areas using ImageJ.

Sgp130FC mice = test: Liver triglycerides and lipid accumulation in Sgp130FC mice (NASH model); assay type: in vivo
Description: Sgp130FC mice specifically blocks IL-6 trans-signaling without affecting classic IL-6 signaling. […] Nine-month-old Sgp130FC mice were injected i.p. with Compound 1 (7.5 mg/kg) or vehicle control twice a week for four weeks (total of 8 injections). The mice were sacrificed after 4 weeks, triglyceride levels were measured from liver and skeletal muscle and hepatic lipid accumulation was visualized using H&E staining.
Compound 1 and AntagomiR injections to mice. C57BL/6 male mice, 7-8 weeks old, or Sgp130FC, 9-month-old male mice, were injected i.p. with 7.5 mg/kg Compound 1 dissolved in saline and 3% DMSO. Saline was injected as control. Mice were hydrodynamic tail vain injected with antagomiR-122 or antagomiR-control (negative control) (5 μg/mouse in 1.5 ml saline). Mice were sacrificed according to the legend of the figure describing the experimental results and the livers, white adipose and skeletal muscle tissues were frozen in liquid nitrogen or in OCT embedded frozen blocks, for further RNA and histologic analysis. AntagomiRs were obtained from Sigma Aldrich, see Table 3.
Triglycerides and β-hydroxybutyrate quantification. To determine the liver and muscle lipid content, muscle and liver tissues (40-80 mg) were homogenized in 0.5 ml of chloroform: Tris solution (v/v, 1:1), the homogenate was transferred to 1 ml of chloroform: methanol solution (v/v, 2:1) centrifuged at 3000 rpm for 10 min. The organic phase was mixed with 5% Triton X100 in chloroform, dried and re-dissolved in water. After lipid extraction, TG concentration in samples was measured with Triglyceride Quantification Kit (BioVision), according to the manufactures instructions. β-hydroxybutyrate was determined utilizing commercial colorimetric kits (BioVision) directly from plasma samples.

[3] = Cellular toxicity assay in CEM cells; assay type: cell-based; settings: human, CEM (human lymphoblastoid) cells, read-out: Cytotoxicity (IC50, μM) CEM
Description: as §1

[4] = 15 mg/kg 3 times a week for 3.5 weeks
[5] = liver, 15 mg/kg 3 times a week for 3.5 weeks
[6] = liver, 15 mg/kg 3 times a week for 3.5 weeks, vs untreated
[7] = 7.5 mg/kg i.p. twice/week, four weeks

**Q.** Which IC50 [1] does the source give for `O=C1Nc2cc(C(=O)N3CCC(Cc4ccccc4)CC3)ccc2Nc2ccccc21` [Compound 1] here?
**A.** 92.4 µM

**Q.** What about the “biomarkers of inflammation (Tgfb2 and TgfbR2) and fibrosis (Acta1, Col1A1 and Col3A1), liver mRNA” value [2, 4] of the same molecule?
**A.** reducing

**Q.** And the “biomarkers of liver injury, AST and ALT (plasma)” value [2, 4]?
**A.** significantly improved

**Q.** What about the “mature miR-122 in tissue and in plasma” value [2, 4] of the same molecule?
**A.** increased

**Q.** And the “liver vasculature (CD34 staining)” value ([2]; data not shown)?
**A.** no effect

**Q.** And the “T-cell density by CD3 staining” value [2, 5]?
**A.** decreased

**Q.** What about the “immune infiltrate by H&E staining” value [2, 5] of the same molecule?
**A.** decreased

**Q.** And the “levels of myeloid infiltrate by F4/80 staining” value [2, 5]?
**A.** decreased

**Q.** And the “reduction of fibrotic areas, Masson Trichrome (M.T)” value [2, 6]?
**A.** 5 fold

**Q.** And the “reduction of fibrotic areas, α-SMA” value [2, 6]?
**A.** 7 fold

**Q.** And the “hepatic lipid accumulation and droplet formation (H&E staining)” value (Sgp130FC mice; 7.5 mg/kg i.p. twice a week for four weeks)?
**A.** markedly reduces

**Q.** And the “reduction of liver triglyceride levels” value (Sgp130FC mice; 7.5 mg/kg i.p. twice a week for four weeks, vs saline)?
**A.** approximately 3 fold

**Q.** And the “MicroRNA-18 plasma and liver levels (negative control)” value (Sgp130FC mice; [7])?
**A.** not affected

**Q.** What about the “liver and muscle triglyceride levels” value (Sgp130FC mice; [7]) of the same molecule?
**A.** reduces

**Q.** And the “miR-122 expression (plasma, liver)” value (Sgp130FC mice; [7])?
**A.** increases

**Q.** What about the IC50 [3] of the same molecule?
**A.** 11 µM
